Data on four molecules can be found in patent publication US6372279B1, “Sweetener composition” (Ajinomoto Co., Inc., priority 1998, dated 2002).

Structures are written as SMILES.

For data set [1] the following is noted: in terms of weight ratio; cited from earlier work.
A short description of data set [2]: Dissolution time in 900 ml water (20° C.), 1-L elution tester, Japanese Pharmacopoeia Paddle method, 100 rpm. The format is physicochemical. The protocol: A predetermined amount of the sample was introduced into 900 ml water (20° C.) in a 1-L elution tester (the Japanese Pharmacopoeia, Paddle method, 100 rpm) and its dissolution time was measured (end point was visually confirmed).
Specifically, 1 g of the sample taken from each mixture consisting of NM C-type crystals (average particle size (diameter) of about 100 μm) and ACE-K raw powder (average particle size of about 20 μm) at a predetermined ratio (ACE-K content (% by weight)) shown in Table 1 below, was weighed and measured for its dissolution time. For comparison, 1.00 g, 0.90 g, 0.80 g, 0.50 g, 0.10 g, and 0.03 g samples were taken from said NM crystals and their dissolution times were determined in the same manner.
The dissolution times of mixtures of NM and ACE-K were measured in the same manner as in Experimental Example 1 except that NM A-type crystals were used in place of NM C-type crystals.
The sample amount for each mixture and the amount of NM alone (NM A-type crystals) were the same as that in Example 1.
The same NM crystals as those in Experimental Example 1 were used as NM, and the same ACE-K powder (average particle size (diameter) of about 20 μm) as that in Experimental Example 1 was used as ACE-K, and the dissolution times thereof were determined in the same manner as in Experimental Example 1.
That is, 0.5 g each of both of them was weighed (1.0 g in total) and introduced simultaneously without being previously mixed, into the elution tester (separate addition). For reference, the dissolution time of 0.5 g NM C-type crystals alone (Experimental Example 1) is also shown together in the table.

Data set [3] can be described thus: Quality of sweetness compared to sucrose (early taste, later taste, astringent taste). As to conditions: found by the present inventors. From the text: It is reported that the sweetness strength or sweetening potency of the synthetic high-potency sweetener, NM, is about 10,000 times that of sucrose in terms of weight ratio (Japanese Patent Kohyou Publication JP-A-8-503206). […] Further, NM has a strong astringent taste. Accordingly, the balance of the quality of sweetness properties for NM is poor when compared to sucrose. Sucrose is generally regarded as the standard for evaluating the properties or characteristics of the quality of sweetness.

Consider `CC1=CC(=O)[N-]S(=O)(=O)O1.[K+]` [ACE-K, Acesulfame K], for which the “Sweetness strength or sweetening potency” value in data set [1] is on record as “about 200 times that of sucrose”.
In data set [2] (NM A-type crystals alone, 0.80 g in 900 ml water, 20° C.), `COC(=O)[C@H](Cc1ccccc1)NC(=O)[C@H](CC(=O)O)NCCC(C)(C)C` [NM A-type crystals, N-{N-(3,3-dimethylbutyl)-L-α-aspartyl}-L-phenylalanine 1-methyl ester, reference compound] registered a Dissolution time of 38 min.
`COC(=O)[C@H](Cc1ccccc1)NC(=O)[C@H](CC(=O)O)NCCC(C)(C)C` [NM C-type crystals, N-{N-(3,3-dimethylbutyl)-L-α-aspartyl}-L-phenylalanine 1-methyl ester] showed a Dissolution time in data set [2] (NM C-type crystals alone, 0.80 g in 900 ml water, 20° C.) of 58 min.
As to `COC(=O)[C@H](Cc1ccccc1)NC(=O)[C@H](CC(=O)O)NCCC(C)(C)C` [NM, N-{N-(3,3-dimethylbutyl)-L-α-aspartyl}-L-phenylalanine 1-methyl ester], in data set [1], the “Sweetness strength or sweetening potency” value was “about 10,000 times that of sucrose”. The Dissolution time entry in data set [2] (0.51 g of NM alone (amount of equal sweetness to 1 g mixture containing 50% ACE-K)) is on record as “about 60 minutes”. In data set [3] (compared to sucrose), the Early taste result was “extremely weak” and the Later taste result was “extremely strong”. The Astringent taste entry in data set [3] is “strong”.
